Several values for one entry are separate records, joined by “and”; a condition that tells them apart may be missing. Equal values may be shown once. Read-outs that look alike come from different tables or passages of the source.
Assay: Half-life of ADR destruction by UVA light in the presence of test compounds (decrease in absorbance at 480 nm)
Assay type: physicochemical
[1] = UVA light, 100 μM test compound alone
[2] = UVA light, 100 μM test compound with 0.5 μM riboflavin

| Structure (SMILES) | Half-Life of ADR Destruction, 100 μM Test Compound [1] | Half-Life of ADR Destruction, 100 μM Test Compound and 0.5 μM Riboflavin [2] | Half-Life of ADR Destruction, 100 μM Test Compound and 0.5 μM Riboflavin | Half-Life of ADR Destruction, 100 μM Test Compound |
| --- | --- | --- | --- | --- |
| COc1ccc(CCO)cc1 [4-Methoxy Phenylethyl Alcohol] | 43.0 min | 5.47 min | – | – |
| COc1ccc(C=O)c2ccccc12 [4-Methoxy-1-naphthaldehyde] | 1.15 min | 1.19 min | – | – |
| COc1ccc(C=C(C)C=O)cc1 [4-Methoxy-α-Methyl Cinnamaldehyde] | – | 20.1 min | – | – |
| CCC(=O)c1ccc(OC)cc1 [4-Methoxypropriophenone] | – | – | 30.1 min | – |
| Cc1cccc2[nH]ccc12 [4-Methyl Indole] | – | 18.7 ± 4.0 min | – | – |
| O=C(O)c1ccc([N+](=O)[O-])cc1 [4-Nitro Benzoic Acid] | – | 50.2 min | – | – |
| CCCCCc1ccc(N)cc1 [4-Pentyl Aniline] | – | 4.12 min | – | – |
| Nc1ccc(Oc2ccccc2)cc1 [4-Phenoxyaniline] | 75.3 min | 15.1 min | – | – |
| O=C(O)c1ccc(-c2ccccc2)cc1 [4-Phenyl Benzoic Acid] | 43.0 min | – | – | – |
| O=C(O)CCCc1ccccc1 [4-Phenyl Butyric Acid] | 43.0 min | 33.5 min | – | – |
| O=C(O)Cc1ccc(-c2ccccc2)cc1 [4-Phenyl Phenylacetic Acid] | 43.0 min | 27.4 min | – | – |
| CC(C(=O)O)c1ccc(-c2ccccc2)cc1 (stereo not drawn) [4-Phenyl α-Methyl-Phenylacetic Acid] | – | 27.4 min | – | – |
| OCCCCc1ccccc1 [4-Phenyl-1-Butanol] | 43.0 min | 43.0 min | – | – |
| CCCc1ccc(N)cc1 [4-Propyl Aniline] | – | 7.34 min | – | – |
| CC(C)(C)c1ccc(N)cc1 [4-tert-Butyl Aniline] | – | 27.4 min | – | – |
| CC(=O)c1ccc(O)cc1 [4′-Hydroxyacetophenone] | 50.2 min | 50.2 min | – | – |
| COc1ccc(C(C)=O)cc1 [4′-Methoxyacetophenone] | – | 33.4 min | – | – |
| COc1cc(OC)c2ccc(=O)oc2c1 [5,7-Dimethoxycoumarin] | 27.4 min | 23.2 min | – | – |
| Nc1ccc2[nH]ccc2c1 [5-Amino Indole] | – | 100.3 min | – | – |
| Nc1cccc2cc(S(=O)(=O)O)ccc12 [5-Amino-2-naphthalenesulfonic acid] | 50.2 min | – | – | – |

| Structure (SMILES) | Half-Life of ADR Destruction, 100 μM Test Compound [1] | Half-Life of ADR Destruction, 100 μM Test Compound and 0.5 μM Riboflavin [2] | Half-Life of ADR Destruction, 100 μM Test Compound and 0.5 μM Riboflavin | Half-Life of ADR Destruction, 100 μM Test Compound |
| --- | --- | --- | --- | --- |
| O=C(O)C1=CC=C2N=NN=C2C1 [5-Benzotriazole-carboxylic acid] | – | 75.3 min | – | – |
| O=C(Oc1ccc2[nH]ccc2c1)c1ccccc1 [5-Benzoyloxy Indole] | – | 43.0 min | – | – |
| Oc1ccc2[nH]ccc2c1 [5-Hydroxy Indole] | – | 150.5 min and 75.3 min | – | – |
| N[C@@H](Cc1c[nH]c2ccc(O)cc12)C(=O)O [5-Hydroxy-tryptophan] | – | 301.0 min | – | – |
| O=C(O)Cc1c[nH]c2ccc(O)cc12 [5-Hydroxyindole-3-acetic acid] | – | 150.5 min | – | – |
| COc1ccc2[nH]ccc2c1 [5-Methoxy Indole] | – | 25.1 min and 14.3 min | – | – |
| COc1ccc2[nH]c(C)cc2c1 [5-Methoxy-2-methyl Indole] | – | – | 7.00 min | 27.4 min |
| COc1ccc2[nH]c(C)c(CC(=O)O)c2c1 [5-Methoxy-2-methylindole-3-acetic acid] | 25.1 min | 4.78 min | – | – |
| COc1ccc2[nH]cc(CCO)c2c1 [5-Methoxy-3-indoleethanol] | 33.5 min | 9.12 min | – | – |
| COc1ccc2[nH]cc(C[C@H](N)C(=O)O)c2c1 [5-Methoxy-tryptophan] | – | 21.5 min | – | – |
| COc1ccc2[nH]cc(CC(=O)O)c2c1 [5-Methoxyindole-3-acetic acid] | 17.7 min | 3.67 min | – | – |
| Cc1ccc2[nH]ccc2c1 [5-Methyl Indole] | – | 8.85 min | – | – |
| Cc1ccc2[nH]cc(C[C@H](N)C(=O)O)c2c1 [5-Methyl-tryptophan] | – | 23.2 min | – | – |
| COc1cc2ccc(=O)oc2cc1OC [6,7-Dimethoxycoumarin] | 21.5 min | – | – | – |
| Nc1ccc2cc(S(=O)(=O)O)cc(O)c2c1 [6-Amino-4-hydroxy-2-naphthalenesulfonic acid] | – | 50.2 min | – | – |
| CC(C(=O)O)c1ccc2c(c1)[nH]c1ccc(Cl)cc12 (stereo not drawn) [6-Chlro-α-methyl-carbazole-2-acetic acid, reference compound] | – | 25.6 ± 11.2 min | – | – |
| COc1ccc2cc[nH]c2c1 [6-Methoxy Indole] | 33.5 min | 6.27 min | – | – |
| COc1ccc2c(C)c(C)[nH]c2c1 [6-Methoxy-2,3-dimethyl Indole] | 43.0 min | 23.2 min | – | – |
| COc1ccc2cc(C(C)=O)ccc2c1 [6-Methoxy-2-acetonaphthone] | 15.8 min | – | – | – |
| COc1ccc2c(C(=O)C(N)=O)c[nH]c2c1 [6-Methoxy-3-indoleglyoxylamide] | 75.3 min | 30.1 min | – | – |

| Structure (SMILES) | Half-Life of ADR Destruction, 100 μM Test Compound [1] | Half-Life of ADR Destruction, 100 μM Test Compound and 0.5 μM Riboflavin [2] | Half-Life of ADR Destruction, 100 μM Test Compound and 0.5 μM Riboflavin | Half-Life of ADR Destruction, 100 μM Test Compound |
| --- | --- | --- | --- | --- |
| CCC(=O)c1ccc2cc(OC)ccc2c1 [6-Methoxy-propionaphthone] | – | – | 27.4 min | 30.1 min |
| COc1ccc2c(C(=O)O)cccc2c1 [6-Methoxynaphthalene-1-carboyxlic acid] | 18.8 min | 4.49 min | – | – |
| COc1ccc2cc(CC(=O)O)ccc2c1 [6-Methoxynaphthalene-2-acetic acid] | 17.7 min | 5.38 min | – | – |
| COc1ccc2cc(C#N)ccc2c1 [6-Methoxynaphthalene-2-nitrile] | 23.2 min | 20.1 min | – | – |
| Cc1ccc2cc[nH]c2c1 [6-Methyl Indole] | – | 24.2 ± 1.3 min | – | – |
| CC(=O)c1ccc2cc(C)ccc2c1 [6-Methyl-2-acetonaphthone] | 8.85 min | 7.53 min | – | – |
| Nc1ccc2c(O)cc(S(=O)(=O)O)cc2c1 [7-Amino-4-hydroxy-2-naphthalenesulfonic acid] | – | 30.1 min | – | – |
| COc1cc2ccc(=O)oc2cc1O [7-Hydroxy-6-methoxycoumarin] | 33.5 min | 33.5 min | – | – |
| COc1cccc2cc[nH]c12 [7-Methoxy Indole] | 43.0 min | 7.72 min | – | – |
| COc1ccc2c(CC(=O)O)cc(=O)oc2c1 [7-Methoxycoumarin-4-acetic acid] | 14.3 min | 11.6 min | – | – |
| COc1ccc2ccc(=O)oc2c1 [7-Methoxycoumarin] | 20.1 min | 18.8 min | – | – |
| Cc1cccc2cc[nH]c12 [7-Methyl Indole] | – | 16.7 min | – | – |
| NC1c2ccccc2-c2ccccc21 [9-Amino Fluorene] | 75.3 min | 50.2 min | – | – |
| O=C(O)C1c2ccccc2-c2ccccc21 [9-Fluorene Carboxylic acid] | 50.2 min | 43.0 min | – | – |
| O=C(O)c1cccc2c1C(=O)c1ccccc1-2 [9-Fluorenone-1-carboxylic acid] | 43.0 min | 43.0 min | – | – |
| O=C(O)c1ccc2c(c1)C(=O)c1ccccc1-2 [9-Fluorenone-2-carboxylic acid] | – | 43.0 min | – | – |
| O=C(O)c1cccc2c1-c1ccccc1C2=O [9-Fluorenone-4-carboxylic acid] | 50.2 min | 43.0 min | – | – |
| Cn1c2ccccc2c(=O)c2ccccc21 [10-Methyl-9(10H) Acridone] | – | – | – | 16.7 min |
| COc1ccc2c(c1)c(CC(=O)OCC(=O)O)c(C)n2C(=O)c1ccc(Cl)cc1 [Acemetacin, {[1-(4-Chlorobenzoyl)-5-methoxy-2-methylindole-3-yl]acetoxy} acetic acid, reference compound] | – | 4.63 min | – | – |
| CC(=O)c1ccccc1 [Acetophenone] | 43.0 min | 43.0 min | – | – |
